SMILES strings stand for the structures.

The target in this assay is bovine cardiac myosin (Bos taurus, UniProt Q9BE39). Kind of assay: Myosin activation assay (PK/LDH-coupled ATPase, bovine cardiac myofibrils). The class given is biochemical. Particulars: AC20 = concentration at which total response is increased by twenty percent. The procedure: Small molecule agents were assessed for their ability to activate the enzymatic activity of bovine cardiac myosin using a biochemical assay that couples the release of ADP (adenosine diphosphate) from cardiac myosin to an enzymatic coupling system consisting of pyruvate kinase and lactate dehydrogenase (PK/LDH) and monitoring the absorbance decrease of NADH (at 340 nm) as a function of time. PK converts ADP to ATP (adenosine triphosphate) by converting PEP (phosphoenolpyruvate) to pyruvate. Pyruvate is then converted to lactate by LDH by converting NADH (nicotinamide adenine dinucleotide) to NAD (oxidized nicotinamide adenine dinucleotide). The source of cardiac myosin was from bovine heart in the form of skinned myofibrils. Prior to testing small molecule agents, the bovine myofibrils were assessed for their calcium responsiveness and the calcium concentration that achieves either a 50% (pCa50 or pCa=˜6) or <5% (pCa=10) activation of the myofibril system was chosen as the final condition for assessing the activation activity of the small molecule agents. All enzymatic activity was measured in a buffered solution containing 12 mM PIPES (piperazine-N,N′-bis(2-ethanesulfonic acid), 2 mM magnesium chloride at pH 6.8 (PM12 buffer). Final assay conditions were 1 mg/mL of bovine cardiac myofibrils, 0.4 mM PK/LDH, 50 uM ATP, 0.1 mg/mL BSA (bovine serum albumin), 10 ppm antifoam, 2 mM BME, 0.5 mM NADH, 1.5 mM PEP at the desired free calcium concentration required to achieve either 50% or <5% activation of the myofibrils.
Sequence of bovine cardiac myosin (Q9BE39 whole entry): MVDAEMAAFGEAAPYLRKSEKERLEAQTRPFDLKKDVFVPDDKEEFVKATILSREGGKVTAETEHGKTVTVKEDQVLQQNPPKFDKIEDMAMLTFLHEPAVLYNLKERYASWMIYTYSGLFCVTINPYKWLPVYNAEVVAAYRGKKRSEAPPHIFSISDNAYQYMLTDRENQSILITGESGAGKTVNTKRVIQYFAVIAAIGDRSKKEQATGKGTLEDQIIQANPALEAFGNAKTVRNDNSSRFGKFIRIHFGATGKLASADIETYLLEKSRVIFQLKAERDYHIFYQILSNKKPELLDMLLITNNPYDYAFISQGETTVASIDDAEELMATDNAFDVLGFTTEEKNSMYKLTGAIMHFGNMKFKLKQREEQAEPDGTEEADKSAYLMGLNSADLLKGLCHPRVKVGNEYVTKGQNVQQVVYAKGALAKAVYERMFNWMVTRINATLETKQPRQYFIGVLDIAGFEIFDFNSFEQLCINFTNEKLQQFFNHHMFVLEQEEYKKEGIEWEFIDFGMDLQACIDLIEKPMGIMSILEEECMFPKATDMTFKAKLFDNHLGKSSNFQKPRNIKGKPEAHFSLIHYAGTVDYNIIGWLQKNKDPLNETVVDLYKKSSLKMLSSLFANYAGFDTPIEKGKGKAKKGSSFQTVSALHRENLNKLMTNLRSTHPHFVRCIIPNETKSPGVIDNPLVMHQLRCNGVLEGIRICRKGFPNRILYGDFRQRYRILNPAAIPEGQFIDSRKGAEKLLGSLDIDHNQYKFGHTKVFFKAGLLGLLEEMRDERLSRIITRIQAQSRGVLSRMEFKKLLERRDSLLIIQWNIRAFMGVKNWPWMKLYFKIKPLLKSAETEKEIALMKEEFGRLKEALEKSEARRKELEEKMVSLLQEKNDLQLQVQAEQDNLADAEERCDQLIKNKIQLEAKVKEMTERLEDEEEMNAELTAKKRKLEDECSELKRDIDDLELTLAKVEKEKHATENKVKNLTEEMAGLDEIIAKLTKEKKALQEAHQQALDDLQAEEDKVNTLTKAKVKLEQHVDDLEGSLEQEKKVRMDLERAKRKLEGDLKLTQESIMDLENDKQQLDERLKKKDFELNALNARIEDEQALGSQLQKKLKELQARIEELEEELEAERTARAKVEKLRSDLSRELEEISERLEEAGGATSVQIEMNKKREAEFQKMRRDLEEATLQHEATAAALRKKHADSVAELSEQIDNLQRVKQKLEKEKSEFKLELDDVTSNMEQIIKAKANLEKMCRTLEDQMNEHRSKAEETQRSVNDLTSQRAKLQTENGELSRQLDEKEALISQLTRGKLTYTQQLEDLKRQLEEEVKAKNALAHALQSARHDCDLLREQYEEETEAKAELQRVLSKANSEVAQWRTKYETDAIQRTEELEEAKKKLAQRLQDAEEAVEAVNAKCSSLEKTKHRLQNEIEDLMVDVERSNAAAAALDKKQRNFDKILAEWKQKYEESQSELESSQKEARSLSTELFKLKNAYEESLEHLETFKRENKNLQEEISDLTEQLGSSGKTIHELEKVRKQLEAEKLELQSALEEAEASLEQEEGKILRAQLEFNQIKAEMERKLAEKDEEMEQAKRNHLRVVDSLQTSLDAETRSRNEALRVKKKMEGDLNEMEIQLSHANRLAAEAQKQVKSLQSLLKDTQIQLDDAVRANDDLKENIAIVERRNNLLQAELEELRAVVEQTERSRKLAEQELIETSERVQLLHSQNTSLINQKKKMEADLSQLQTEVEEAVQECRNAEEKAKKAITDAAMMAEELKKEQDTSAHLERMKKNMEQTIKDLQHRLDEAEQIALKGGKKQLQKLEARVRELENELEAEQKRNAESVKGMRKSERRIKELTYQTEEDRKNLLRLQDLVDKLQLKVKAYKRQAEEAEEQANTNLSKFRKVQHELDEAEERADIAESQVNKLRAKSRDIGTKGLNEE
Sequence of bovine cardiac myosin (P85100 whole entry partner): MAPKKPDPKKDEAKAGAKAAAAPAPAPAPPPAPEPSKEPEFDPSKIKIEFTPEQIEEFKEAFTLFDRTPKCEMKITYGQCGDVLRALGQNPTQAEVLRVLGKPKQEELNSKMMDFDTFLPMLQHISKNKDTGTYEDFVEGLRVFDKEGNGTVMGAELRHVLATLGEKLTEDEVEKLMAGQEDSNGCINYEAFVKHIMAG
Sequence of bovine cardiac myosin (Q3SZE5 whole entry partner): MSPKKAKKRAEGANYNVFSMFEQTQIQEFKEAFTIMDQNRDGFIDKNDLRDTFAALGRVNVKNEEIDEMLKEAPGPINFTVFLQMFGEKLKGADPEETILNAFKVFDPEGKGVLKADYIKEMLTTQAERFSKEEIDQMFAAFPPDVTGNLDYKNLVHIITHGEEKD
A dilution series of compound was created in DMSO such that the final desired concentration of compound would be achieved in a volume of […] with a fixed DMSO concentration of 3.3% (v/v). Typically a 1 μL of the dilution series was added to a 384 well plate to achieve a 10 point dose response. Following the addition of 14 μL of a solution containing bovine cardiac myofibrils, PK/LDH and a solution of calcium (that achieved the desired activation), the enzymatic reaction was started with the addition of 15 μL of a solution containing ATP, PEP and NADH. The reaction progress was followed in a PerkinElmer Envision plate reader at ambient temperature using clear bottom plates. The plate reader was configured to read absorbance at 340 nm in kinetics mode for 15 minutes. Data were recorded as the slope of the absorbance response to time. The slopes of the absorbance response as a function of time were normalized to slopes on the plate containing DMSO. This normalized rate was then plotted as a function of small molecule concentration and the data was fitted to a four-parameter fit using EXCEL XLfit. The concentration at which the total response is increased by twenty or fifty percent is reported as AC20 or AC50.
Regarding `O=C(Nc1ccnnc1)N1CCC(C(F)(F)S(=O)(=O)c2ccccc2C(F)F)CC1` [Compound 4, 4-(((2-(Difluoromethyl)phenyl)sulfonyl)difluoromethyl)-N-(pyridazin-4-yl)piperidine-1-carboxamide], the “Myosin Activation (AC20)” value is reported as “++ (++ represents myosin activation value AC20 from 2 μM-5 μM)”.
As to `Cn1cc(S(=O)(=O)C(C)(C)C2CCN(C(=O)Nc3cn[nH]c3)CC2)c(C(F)(F)F)n1` [Compound 110, 4-(2-((1-methyl-3-(trifluoromethyl)-1H-pyrazol-4-yl)sulfonyl)propan-2-yl)-N-(1H-pyrazol-4-yl)piperidine-1-carboxamide], the “Myosin Activation (AC20)” value is listed as “++ (++ represents myosin activation value AC20 from 2 μM-5 μM)”.
The result for `Cc1ccc(NC(=O)N2CCC(C(C)(C)S(=O)(=O)c3cc(C(F)(F)F)nn3C)CC2)cn1` [Compound 130, 4-(2-((1-methyl-3-(trifluoromethyl)-1H-pyrazol-5-yl)sulfonyl)propan-2-yl)-N-(6-methylpyridin-3-yl)piperidine-1-carboxamide] reads “++ (++ represents myosin activation value AC20 from 2 μM-5 μM)”; that for `[2H]C([2H])([2H])n1cc(S(=O)(=O)[C@](F)(C2CCN(C(=O)Nc3ccon3)CC2)C([2H])([2H])[2H])c(C(F)F)n1` [Compound 305, (S)-4-(1-((3-(difluoromethyl)-1-(methyl-d3)-1H-pyrazol-4-yl)sulfonyl)-1-fluoroethyl-2,2,2-d3)-N-(isoxazol-3-yl)piperidine-1-carboxamide], “+ (+ represents myosin activation value AC20 > 5 μM)”.
Then `CC(C)(C1CCN(C(=O)Nc2ccnc(Cl)c2)CC1)S(=O)(=O)c1cccc(F)c1` [Compound 160, N-(2-chloropyridin-4-yl)-4-(2-((3-fluorophenyl)sulfonyl)propan-2-yl)piperidine-1-carboxamide], with “++ (++ represents myosin activation value AC20 from 2 μM-5 μM)”.
Turning to `C[C@](F)(C1CCN(C(=O)Nc2ccnnc2)CC1)S(=O)(=O)c1cccc(F)c1` [Compound 278, (R)-4-(1-fluoro-1-((3-fluorophenyl)sulfonyl)ethyl)-N-(pyridazin-4-yl)piperidine-1-carboxamide], the “Myosin Activation (AC20)” value is recorded as “+++ (+++ represents myosin activation value AC20 < 2 μM)”.
Then `O=C(Nc1ccnnc1)N1CCC(C2(S(=O)(=O)c3cc(F)cc(F)c3)CCC2)CC1` [Compound 167, 4-(1-((3,5-difluorophenyl)sulfonyl)cyclobutyl)-N-(pyridazin-4-yl)piperidine-1-carboxamide], with “+++ (+++ represents myosin activation value AC20 < 2 μM)”; and `Cn1cc(S(=O)(=O)[C@@](C)(F)C2CCN(C(=O)Nc3cc[nH]n3)CC2)c(C(F)F)n1` [Compound 290, (R)-4-(1-((3-(difluoromethyl)-1-methyl-1H-pyrazol-4-yl)sulfonyl)-1-fluoroethyl)-N-(1H-pyrazol-3-yl)piperidine-1-carboxamide], with “++ (++ represents myosin activation value AC20 from 2 μM-5 μM)”.
Consider `O=C(Nc1ccnnc1)N1CCC(C(F)(F)S(=O)(=O)c2cccn3ccnc23)CC1` [Compound 22, 4-(Difluoro(imidazo[1,2-a]pyridin-8-ylsulfonyl)methyl)-N-(pyridazin-4-yl)piperidine-1-carboxamide], for which the “Myosin Activation (AC20)” value was “+ (+ represents myosin activation value AC20 > 5 μM)”.
`Cn1nccc1S(=O)(=O)C(C)(F)C1CCN(C(=O)Nc2ccnc(F)c2)CC1` (centres unmarked) [Compound 226, 4-(1-fluoro-1-((1-methyl-1H-pyrazol-5-yl)sulfonyl)ethyl)-N-(2-fluoropyridin-4-yl)piperidine-1-carboxamide]: the “Myosin Activation (AC20)” value is reported as “+ (+ represents myosin activation value AC20 > 5 μM)”.
In the case of `Cn1nc(C(F)(F)F)cc1S(=O)(=O)C(C)(C)C1CCN(C(=O)Nc2ccc(F)nc2)CC1` [Compound 123, N-(6-fluoropyridin-3-yl)-4-(2-((1-methyl-3-(trifluoromethyl)-1H-pyrazol-5-yl)sulfonyl)propan-2-yl)piperidine-1-carboxamide], the “Myosin Activation (AC20)” value is “++ (++ represents myosin activation value AC20 from 2 μM-5 μM)”.

(Values after patent US11123337B2, “4-methylsulfonyl-substituted piperidine urea compounds” (MYOKARDIA, INC., priority 2015, dated 2021).)
